Laboratory results: patent US9938290B2, “Tricyclic heterocyclic compounds as phosphoinositide 3-kinase inhibitors” (Karus Therapeutics Limited, priority 2009, dated 2018)

Tests used:
PC3 (Prostate Tumour) = experiment: In vitro inhibition of tumour cell proliferation, PC3; format: cell-based
[1] = tested on: Rheumatoid Arthritis Synovial Fibroblast (RASF); experiment: In vitro inhibition of rheumatoid arthritis synovial fibroblast (RASF) proliferation; format: cell-based
A549 (Lung Tumour) = experiment: In vitro inhibition of tumour cell proliferation, A549; format: cell-based
MCF7 (Breast Tumour) = experiment: In vitro inhibition of tumour cell proliferation, MCF7; format: cell-based
[2] = tested on: IL-23 production in hPBMCs; experiment: Inhibition of IL-23 production from anti-CD3-stimulated hPBMCs; format: cell-based, human; details: hPBMCs stimulated with anti-CD3
Experimental: (§1) 2) Anti-Inflammatory Activity: Inhibition of the Production of Pro-Inflammatory Cytokines from Stimulated Human Peripheral Blood Mononuclear Cells (hPBMCs)
(§2) Compounds were tested at a concentration of 1 uM for cytokine release inhibition in hPBMCs stimulated with LPS (TNFα), PHA (IFNγ) and anti-CD3 (IL-17A, IL-17F, IL-21, IL-23): […]

[3] = tested on: IL-21 production in hPBMCs; experiment: Inhibition of IL-21 production from anti-CD3-stimulated hPBMCs; format: cell-based, human; details: hPBMCs stimulated with anti-CD3
Experimental: as §1, §2

[4] = tested on: IL-17A production in hPBMCs; experiment: Inhibition of IL-17A production from anti-CD3-stimulated hPBMCs; format: cell-based, human; details: hPBMCs stimulated with anti-CD3
Experimental: as §1, §2

[5] = tested on: TNFα production in hPBMCs; experiment: Inhibition of TNFα production from LPS-stimulated hPBMCs; format: cell-based, human; details: hPBMCs stimulated with LPS
Experimental: as §1, §2

[6] = tested on: IFNγ production in hPBMCs; experiment: Inhibition of IFNγ production from PHA-stimulated hPBMCs; format: cell-based, human; details: hPBMCs stimulated with PHA
Experimental: as §1, §2

[7] = tested on: IL-17F production in hPBMCs; experiment: Inhibition of IL-17F production from anti-CD3-stimulated hPBMCs; format: cell-based, human; details: hPBMCs stimulated with anti-CD3
Experimental: as §1, §2

Row | Compound | IC50 (PC3 (Prostate Tumour)) | IC50 [1] | IC50 (A549 (Lung Tumour)) | IC50 (MCF7 (Breast Tumour)) | % Inhibition of Proinflammatory Cytokine Production at 1 uM, IL-23 [2] | % Inhibition of Proinflammatory Cytokine Production at 1 uM, IL-21 [3] | % Inhibition of Proinflammatory Cytokine Production at 1 uM, IL-17A [4] | % Inhibition of Proinflammatory Cytokine Production at 1 uM, TNFα [5] | % Inhibition of Proinflammatory Cytokine Production at 1 uM, IFNγ [6] | % Inhibition of Proinflammatory Cytokine Production at 1 uM, IL-17F [7]
1 | c1cc(-c2nc(N3CCOCC3)c3oc4ncc(CN5CCOCC5)cc4c3n2)c2cc[nH]c2c1 [K, 2-(1H-Indol-4-yl)-4-morpholin-4-yl-8-morpholin-4-ylmethyl-pyrido[3′,2′:4,5]furo[3,2-d]pyrimidine] | 3340 nM | 3020 nM | 682 nM | 352 nM | – | – | – | – | – | –
2 | (E)-1-(4-Methyl-piperazin-1-yl)-3-[4-morpholin-4-yl-2-(1H-pyrrolo[2,3-b]pyridin-4-yl)-pyrido[3′,2′:4,5]furo[3,2-d]pyrimidin-8-yl]-propenone | – | – | – | – | 93% | 82% | 77% | 74% | 67% | 74%
